# Experimental data: ChEMBL document CHEMBL1201862, “PubChem BioAssay data set” (2004)
# The source made the active and inactive calls.
# Legend:
# H4 = experiment: Luminescence Cell-Based Dose Response HTS to Identify Activators of 5'UTR Stem-Loop Driven Prion Protein mRNA Translation in H4 Neuroglioblastoma Cells. [Related pubchem assays: 1829 (Project Summary), 1814 (Primary HTS)]; format: functional; conditions: Homo sapiens
# [1] = Luminescence Cell-Based Dose Confirmation HTS to Identify Activators of 5'UTR Stem-Loop Driven Alpha-Synuclein mRNA Translation in H4 Neuroglioblastoma Cells. [Related pubchem assays: 1829 (Project Summary), 1814 (Primary HTS)]; format: functional
# [2] = Luminescence Cell-Based Dose Response HTS to Identify Activators of Luciferase Translation or Activity in H4 […] Cells. [Related pubchem assays: 1829 (Project Summary), 1814 (Primary HTS)]; format: functional
# [3] = Shn3 3'UTR reporter inhibitors, dose response, cell-based, Clone20 osteoblasts, firefly luciferase, cherry-picked (AID 624132); format: functional;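 further: firefly luciferase luminescence from reporter carrying the Shn3 3'UTR in osteoblasts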
# [4] = HepG2 cell cytotoxicity, dose response, cytotoxicity control for Shn3 inhibitor project, CellTiter-Glo, cherry-picked (AID 624134); format: functional, cell-based
# [5] = control 3'UTR Renilla luciferase suppression, dose response, counter-screen for Shn3 inhibitor project, cell-based, Clone20-Shn3RL, cherry-picked (AID 624133); format: functional
# [6] = biological target: T1, Carboxy-terminal domain RNA polymerase II polypeptide A small phosphatase 1 (Homo sapiens, UniProt Q9GZU7); experiment: inhibitors of CTDSP1, concentration-response testing, biochemical assay, absorbance-based, actives from ultra-high-throughput screening (AID 540297); format: functional
# T1 sequence (Q9GZU7 whole entry): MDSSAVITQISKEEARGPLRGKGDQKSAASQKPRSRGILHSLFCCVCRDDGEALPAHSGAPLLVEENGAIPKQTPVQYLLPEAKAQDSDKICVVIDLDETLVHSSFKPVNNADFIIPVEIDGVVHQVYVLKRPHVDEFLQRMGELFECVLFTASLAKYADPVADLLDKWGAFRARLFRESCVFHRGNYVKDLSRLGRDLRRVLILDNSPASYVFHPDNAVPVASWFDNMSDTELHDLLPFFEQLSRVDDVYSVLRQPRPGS
# [7] = biological target: T2, Rac GTPase-activating protein 1 (Homo sapiens, UniProt Q9H0H5); experiment: MgcRacGAP GTPase-activating activity inhibitors, confirmation, biochemical, ADP Hunter fluorescence, primary and confirmatory (AID 624330); format: functional
# T2 sequence (Q9H0H5 whole entry): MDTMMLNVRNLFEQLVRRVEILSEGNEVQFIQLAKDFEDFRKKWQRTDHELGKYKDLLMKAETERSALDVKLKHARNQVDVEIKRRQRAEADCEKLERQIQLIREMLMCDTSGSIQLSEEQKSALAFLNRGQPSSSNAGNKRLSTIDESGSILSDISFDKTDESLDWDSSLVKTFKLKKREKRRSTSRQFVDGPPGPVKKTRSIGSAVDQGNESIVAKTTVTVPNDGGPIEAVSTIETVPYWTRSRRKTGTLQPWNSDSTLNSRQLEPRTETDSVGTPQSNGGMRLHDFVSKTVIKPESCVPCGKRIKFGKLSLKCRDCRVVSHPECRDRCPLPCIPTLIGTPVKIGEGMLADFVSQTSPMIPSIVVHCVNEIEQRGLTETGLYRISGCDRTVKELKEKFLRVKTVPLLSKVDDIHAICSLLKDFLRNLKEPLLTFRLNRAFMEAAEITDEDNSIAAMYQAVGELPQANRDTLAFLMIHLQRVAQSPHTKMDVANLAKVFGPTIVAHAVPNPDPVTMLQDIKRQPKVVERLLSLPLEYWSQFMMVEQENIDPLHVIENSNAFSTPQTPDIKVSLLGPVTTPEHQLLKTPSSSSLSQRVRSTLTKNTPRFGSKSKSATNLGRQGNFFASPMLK
# [8] = Luminescence Cell-Based Dose Retest to Confirm Inhibitors of Cancer Stem Cells. [Related pubchem assays (depositor defined):AID2717, AID2721]; format: functional; conditions: Homo sapiens
# [9] = HEp-2 cell cytotoxicity, dose response, cytotoxicity control for RSV inhibitor project, HTS (AID 2410); format: functional; conditions: human respiratory syncytial virus
SMILES,EC50 (H4),EC50 [1],EC50 [2],also measured
CCCCc1nc2cc(C(=O)N(C)C3CCOCC3)ccc2o1,0.399 µM (active),1.36 µM (active),15 µM (active),
CC(C)(C)c1nc(NCCN2CCOCC2)c2nnn(Cc3ccccc3Cl)c2n1,,,,AC50 [3]: 8.85 µM (active); AC50 [4]: 56.5 µM (active)
CCOCC(=O)Nc1nnc(C2CCCCC2)s1,> 120 µM (not active),> 120 µM (not active),83 µM (active),
CCOC(=O)c1cnn(-c2ncnc3c2cnn3C)c1N,90.5 µM (active),31.6 µM (active),10.9 µM (active),
COC(=O)c1ccc(S(=O)(=O)N2CCCN(Cc3ccccc3)CC2)n1C,,,,AC50 [3]: 51.1 µM (active); AC50 [4]: 69.6 µM (active); AC50 [5]: 28 µM (active)
Cc1sc2ncnc(N3CCC(C(=O)Nc4nc5ccc(Cl)cc5s4)CC3)c2c1C,28.5 µM (active),8.58 µM (active),19.2 µM (active),
COc1ccc(/C=C2\C(=O)NC(=S)N(C)C2=O)cc1C,,,,IC50 [6]: 0.632 µM (active); IC50 [7]: 21.4 µM (active)
Oc1ccc(N=Nc2ccc(Br)cc2)c(O)c1,,,,AC50 [8]: 4.2 µM (active)
Cc1ccc(/C=C\c2[nH]ccc3c4ccccc4nc2-3)cc1,,,,AC50 [8]: 17.4 µM (active); CC50 [9]: 28.9 µM (active)
COc1ccc(NC(=O)c2c3c(nc4ccccc24)CCC3)cc1S(=O)(=O)N1CCOCC1,,,,IC50 [6]: 3.75 µM (active)
Cc1ccc(NC(=O)C2CCC(C(C)(C)C)CC2)cc1S(=O)(=O)N1CCOCC1 (stereo unspecified),,,,AC50 [3]: 12.2 µM (active); AC50 [4]: 53.1 µM (active)
COc1ccc(NC(=O)Cn2nnc(-c3ccccc3NC(=O)c3cccs3)n2)cc1,> 120 µM (not active),> 120 µM (not active),3.68 µM (active),
COc1cccc(NC(=O)CN(C)C(=O)c2cc(-c3ccco3)nc3ccccc23)c1,,,,IC50 [6]: 6.41 µM (active)
O=S(=O)(c1cccs1)N1CCN(CCOc2ccc(Cl)cc2)CC1,,,,AC50 [3]: 13.8 µM (active); AC50 [4]: 37.6 µM (active); AC50 [5]: 23.9 µM (active)
COc1cc(F)c(C2=CC(=O)C[C@H](c3ccc(Cl)cc3)C2)cc1F,,,,AC50 [8]: 1.43 µM (active)
O=C(Nc1ccccc1)C1=C[C@@H](c2ccc(C(F)(F)F)cc2)C[C@@H](OCc2ccc(CO)cc2)O1,,,,AC50 [8]: 5.5 µM (active)
COc1ccc(-n2nc(C(=O)NCC(=O)N3CCN(c4ccccc4F)CC3)c3ccccc3c2=O)cc1,95.7 µM (active),27.8 µM (active),8.08 µM (active),
O=C(NN=C1CCCC1)c1cc(O)cc(O)c1,,,,IC50 [6]: 10.2 µM (active)
COc1cc(/C=C2/CCC/C(=C\c3cc(O)c(OC)c(Cl)c3)C2=O)cc(Cl)c1O,,,,AC50 [8]: 0.629 µM (active)
CCN1C(=O)/C(=C\N2CCCCCC2)SC1=S,12.8 µM (active),> 120 µM (not active),7.47 µM (active),
Cc1cccc(C(=O)NNC(=O)c2ccc(-c3ccccc3)cc2)c1,,,,IC50 [6]: 5.8 µM (active)
CCN(CC)c1ccc(/C=C2/SC(=O)N(C(C)C)C2=O)o1,,,,AC50 [3]: 3.46 µM (active); AC50 [4]: 58.9 µM (active); AC50 [5]: 7.5 µM (active); IC50 [7]: 48.2 µM (active)
Sc1nnc(Cn2c(-c3ccccn3)nc3ccccc32)n1-c1ccc2c(c1)OCCO2,29.5 µM (active),12.5 µM (active),14.9 µM (active),
O=S(=O)(Nc1ccc2[nH]c(-c3ccco3)nc2c1)c1ccccc1,17.3 µM (active),14.8 µM (active),36.8 µM (active),
CCn1c(O)cc(=O)nc1SCC(=O)Nc1ccc(C)cc1,> 120 µM (not active),> 120 µM (not active),> 120 µM (not active),
